Activity, viability and IC50 data for nine compounds are collected here from ChEMBL document CHEMBL5370522, “Anti-inflammatory efficacy and relevant SAR investigations of novel chiral pyrazolo isoquinoline derivatives: Design, synthesis, in-vitro, in-vivo, and computational studies targeting iNOS” (Eur J Med Chem, 2023).

The subject of data set [1] is RAW264.7. As to the kind of experiment: Anti inflammatory activity in LPS-induced mouse RAW264.7 cells assessed as inhibition of NO production at 80 uM preincubated with LPS for 4 hrs followed by compound addition and measured after 18 hrs by griess reagent based assay. The format is functional. Details: scale not given: the % may be the effect or the level left.
Data set [2] deals with RAW264.7. The data set is described as follows: Cytotoxicity against mouse RAW264.7 cells assessed as reduction in cell viability at 1 to 40 uM incubated for 24 hrs by MTT assay. The format is toxicity, cell-based. Particulars: raw264.7, 24 h, dose 1-40 µM. Background: Tetrazolium assays rely on reduction of a dye to a coloured formazan, in cell work by metabolically active cells.

Data set [3] deals with RAW264.7. The data set is described as follows: Anti inflammatory activity in LPS-induced mouse RAW264.7 cells assessed as inhibition of NO production preincubated with LPS for 4 hrs followed by compound addition and measured after 18 hrs by griess reagent based assay. The format is functional, cell-based. Particulars: for Activity: dose 5-80 µM. (In general: Nitrite, measured by Griess reagent, commonly stands in for NO production.)

A short description of data set [4]: Cytotoxicity against mouse RAW264.7 cells assessed as cell survival rate at 100 uM incubated for 24 hrs by MTT assay. Particulars: read-out: Activity. The format is toxicity, cell-based.
Data set [5] deals with RAW264.7. The data set is described as follows: Anti inflammatory activity in LPS-induced mouse RAW264.7 cells assessed as reduction in iNOS expression at 5 to 80 uM measured for 24 hrs by Western blot analysis. The class given is functional, cell-based. Particulars: dose 5-80 µM.
The subject of data set [6] is Mus musculus. As to the kind of experiment: Antiinflammatory activity against xylene-induced ear edema mouse model assessed as swelling rate at 10 mg/kg, iv measured after 30 mins. The class given is functional. Particulars: 0.5 h.

Activity calls are given as the source filed them. No cut-off for these calls is given here.

Turning to `Cc1ccc(S(=O)(=O)N2C(=O)[C@H](c3ccccc3F)[C@H]3c4cccc(Br)c4C=CN32)cc1`, the Activity in data set [1] was 92.84%; in data set [2], 90%; in data set [3], “Dose-Dependent Effect”. For the same compound, the viability at 24 h, 100 µM in data set [4] was found to be 87.7%.
Regarding `COc1ccc([C@H]2C(=O)N(S(=O)(=O)c3ccc(C)cc3)N3C=Cc4c(Br)cccc4[C@H]23)cc1`, in data set [1], the Activity is listed as 84.9%. Moreover, in data set [3], the IC50 came out at 26.7 µM and the Activity entry is “Dose-Dependent Effect”. Besides, the viability at 24 h, 100 µM in data set [4] is 91.7%.
As for `Cc1ccc(S(=O)(=O)N2C(=O)[C@H](c3ccccc3)[C@H]3c4cccc(Br)c4C=CN32)cc1`, the Activity is 90.52% in data set [1], 90% in data set [2] and “Dose-Dependent Effect” in data set [3]. The IC50 in data set [3] was found to be 47.8 µM. Besides, in data set [4], the viability at 24 h, 100 µM turned out to be 92.3%.
As for `Cc1ccc(S(=O)(=O)N2C(=O)[C@H](c3ccc(Br)cc3)[C@H]3c4cccc(Br)c4C=CN32)cc1`, in data set [5], the result was Active. For the same compound, the Activity was 91.61% in data set [1], 90% in data set [2] and “Dose-Dependent Effect” in data set [3]. The IC50 in data set [3] is 20.8 µM. In addition, the viability at 24 h, 100 µM in data set [4] was 92.9%.
With `Cc1ccc(S(=O)(=O)N2C(=O)[C@H](c3cccc(F)c3)[C@H]3c4cccc(Br)c4C=CN32)cc1`, in data set [3], the IC50 came to 33.8 µM and the Activity result was “Dose-Dependent Effect”.
Regarding `COc1ccc([C@H]2C(=O)N(S(=O)(=O)c3ccc(C)cc3)N3C=Cc4ccccc4[C@H]23)cc1`, the figures for the Activity in data set [1] and in data set [3] were 77.09% and “Dose-Dependent Effect”, respectively. Further, in data set [3], the IC50 is 47.8 µM. Moreover, the viability at 24 h, 100 µM in data set [4] was found to be 87%.
As for `Cc1ccc(S(=O)(=O)N2C(=O)[C@H](c3cccc(Br)c3)[C@H]3c4cccc(Br)c4C=CN32)cc1`, the figures for the Activity in data set [1] and in data set [3] were 72.86% and “Dose-Dependent Effect”, respectively. Besides, the viability at 24 h, 100 µM in data set [4] amounted to 81.7%.
As for `Cc1ccc(S(=O)(=O)N2C(=O)[C@H](c3ccc(F)cc3)[C@H]3c4ccccc4C=CN32)cc1`, the figures for the Activity in data set [1], in data set [3] and in data set [6] were 73.46%, “Dose-Dependent Effect” and 64.4%, respectively. Further, the viability at 24 h, 100 µM in data set [4] turned out to be 91.7%.
As for `Cc1ccc(-c2cc(C(F)(F)F)nn2-c2ccc(S(N)(=O)=O)cc2)cc1` [CELECOXIB], the Activity in data set [6] is recorded as 70.05%.

Broadly, the IC50 is the concentration at which inhibition is half-maximal.
